Test results published in patent US20190151290A1 (Hoffmann-La Roche Inc., priority 2015, published 2019).

Experiments:
[1] = test system: patients who had a linear GFR decline (diabetic nephropathy patients); details: due to hemodynamic response
[2] = test system: patients with type 2 diabetes mellitus and acute coronary syndrome; assay type: in vivo; details: aleglitazar 150 μg daily vs placebo, overall population

SMILES: CO[C@@H](Cc1ccc(OCCc2nc(-c3ccccc3)oc2C)c2ccsc12)C(=O)O [aleglitazar, (S)-2-methoxy-3-{4-[2-(5-methyl-2-phenyl-oxazol-4-yl)-ethoxy]-benzo[b]thiophen-7-yl}-propionic acid]
- initial drop of GFR [1]: reversible after stopping the drug
- hemoglobin A1C [2]: reduced
- incidence of cardiovascular death, myocardial infarction or stroke [2]: did not significantly decrease
- serum HDL-C level [2]: improved
- serum triglyceride level [2]: improved
